Results from patent publication US20260274832A1, “COMPOUNDS AND THEIR USE IN TREATING CANCER” (ASTRAZENECA AB, priority 2023, published 2026).

Tests used:
[1] = biological target: T1, AR (AR-full length) in LNCaP cells (Homo sapiens, UniProt P10275, T878A); experiment: LNCaP Androgen Receptor Imaging Assay (immunofluorescence of endogenous nuclear AR); format: cell-based; conditions: 24 h incubation; for DC50: concentration giving 50% of maximum degradation of AR per curve fit, single experiment or average of two or more; for Dmax: LNCaP, maximum degradation observed, normalized as % of positive control (prior art AR PROTAC at 3 μM)
T1 construct: the prostate cancer cell line LNCaP (expressing AR-full length); endogenous in cells; host or cells: LNCaP
Procedure, shortened: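 LNCaP cells (12,000/well) received a 12-point compound dose series (0.3% DMSO) for 24 h at 37° C., then were PFA-fixed and stained for AR (AR441) and nuclei (DRAQ5). Nuclear AR was quantified by imaging, normalized to a 3 μM AR PROTAC control; DC50 and Dmax came from Hill/bell curve fits.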

[2] = biological target: T2, AR (L702H) in LNCaP cells (Homo sapiens, UniProt P10275, L702H/T878A); experiment: LNCaP Androgen Receptor L702H Imaging Assay (LNCaP cells engineered by CRISPR/Cas9); format: cell-based; conditions: LNCaP cells with AR L702H mutation, 24 h incubation; for DC50: concentration giving 50% of maximum degradation of AR (L702H) per curve fit; for Dmax: LNCaP, maximum degradation observed, normalized as % of positive control
T2 construct: engineered to introduce the mutation L702H into the AR gene using CRISPR/Cas9; endogenous in cells; host or cells: LNCaP cells edited by CRISPR/Cas9 at the AR gene
Procedure, shortened: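 CRISPR-engineered LNCaP cells carrying AR L702H were treated 24 h at 37 °C with a 12-point compound dose response (0.3% DMSO), then fixed and immunostained for AR with DRAQ5 nuclear counterstain. Nuclear AR was quantified by imaging, normalized to positive control; DC50 and Dmax came from Hill or bell-shaped fits.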

T2 sequence (P10275 whole entry L702H/T878A): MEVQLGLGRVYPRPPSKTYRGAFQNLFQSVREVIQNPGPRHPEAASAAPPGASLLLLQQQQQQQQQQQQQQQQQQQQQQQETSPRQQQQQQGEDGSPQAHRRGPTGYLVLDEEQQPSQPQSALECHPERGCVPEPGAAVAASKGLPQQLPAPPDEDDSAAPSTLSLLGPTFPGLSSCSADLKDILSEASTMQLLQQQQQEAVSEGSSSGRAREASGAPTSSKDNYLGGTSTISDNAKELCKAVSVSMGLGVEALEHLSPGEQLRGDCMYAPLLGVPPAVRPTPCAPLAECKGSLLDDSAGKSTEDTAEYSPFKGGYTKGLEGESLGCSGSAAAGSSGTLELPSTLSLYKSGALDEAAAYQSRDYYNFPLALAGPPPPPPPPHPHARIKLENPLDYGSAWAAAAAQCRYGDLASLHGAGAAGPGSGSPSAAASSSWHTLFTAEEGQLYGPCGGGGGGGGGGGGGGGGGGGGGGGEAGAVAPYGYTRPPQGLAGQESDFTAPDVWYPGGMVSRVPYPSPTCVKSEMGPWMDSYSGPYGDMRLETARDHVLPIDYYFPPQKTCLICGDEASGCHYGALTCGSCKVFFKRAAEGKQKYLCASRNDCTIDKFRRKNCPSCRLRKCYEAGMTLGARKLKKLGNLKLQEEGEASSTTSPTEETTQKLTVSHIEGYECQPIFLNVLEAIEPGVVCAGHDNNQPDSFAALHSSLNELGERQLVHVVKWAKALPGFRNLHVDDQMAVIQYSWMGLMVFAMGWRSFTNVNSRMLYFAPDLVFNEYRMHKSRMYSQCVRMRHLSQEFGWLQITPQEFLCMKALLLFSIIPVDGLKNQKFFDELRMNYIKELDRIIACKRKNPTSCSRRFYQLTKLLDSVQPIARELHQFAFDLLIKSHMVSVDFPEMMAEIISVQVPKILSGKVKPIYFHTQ
T2 sequence (Q96SW2 whole entry partner): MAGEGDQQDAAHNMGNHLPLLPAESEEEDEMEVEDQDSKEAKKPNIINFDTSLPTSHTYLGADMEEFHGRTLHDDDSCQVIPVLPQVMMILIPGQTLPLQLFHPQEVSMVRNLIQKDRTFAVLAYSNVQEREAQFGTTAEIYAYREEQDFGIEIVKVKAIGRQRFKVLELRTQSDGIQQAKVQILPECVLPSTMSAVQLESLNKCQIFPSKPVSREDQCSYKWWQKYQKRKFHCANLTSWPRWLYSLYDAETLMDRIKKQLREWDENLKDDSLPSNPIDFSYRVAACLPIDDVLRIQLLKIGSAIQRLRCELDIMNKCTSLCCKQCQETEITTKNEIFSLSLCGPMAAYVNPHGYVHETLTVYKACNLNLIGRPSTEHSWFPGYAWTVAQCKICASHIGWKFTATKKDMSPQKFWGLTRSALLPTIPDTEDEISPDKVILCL
T1 sequence (P10275 whole entry T878A): as the sequence (P10275 whole entry L702H/T878A) above, with H702L counted along it
T1 sequence (Q96SW2 whole entry partner): as the sequence (Q96SW2 whole entry partner) above

| Structure (SMILES) | DC50 [1] [nM] | Dmax [1] [%] | DC50 [2] [nM] | Dmax [2] [%] |
| --- | --- | --- | --- | --- |
| N#Cc1c[nH]c2c(N3CCC(NC(=O)c4ccc(N5CCC(N6CCN(c7cc8c(cc7F)C(=O)N(C7CCC(=O)NC7=O)C8=O)CC6)CC5)cn4)CC3)ccc(Cl)c12 (stereo not drawn) [Example 166, N-[1-(4-Chloro-3-cyano-1H-indol-7-yl)piperidin-4-yl]-5-(4-{4-[2-(2,6-dioxopiperidin-3-yl)-6-fluoro-1,3-dioxo-2,3-dihydro-1H-isoindol-5-yl]piperazin-1-yl}piperidin-1-yl)pyridine-2-carboxamide] | 4 | 85 | 37 | 92 |
| N#Cc1c[nH]c2c(N3CCC(NC(=O)c4ccc(N5CCC(CN6CCC(n7ccc8c(N9CCC(=O)NC9=O)cccc87)CC6)CC5)cn4)CC3)ccc(Cl)c12 [Example 167, N-[1-(4-Chloro-3-cyano-1H-indol-7-yl)piperidin-4-yl]-5-[4-({4-[4-(2,4-dioxo-1,3-diazinan-1-yl)-1H-indol-1-yl]piperidin-1-yl}methyl)piperidin-1-yl]pyridine-2-carboxamide] | 1 | 101 | 2 | 100 |
| Cc1ccc(N2CCC(NC(=O)c3ccc(N4CCC(CN5CCN(c6ccc7c(c6)CN(C6CCC(=O)NC6=O)C7=O)CC5)CC4)cn3)CC2)c2[nH]cc(C#N)c12 (stereo not drawn) [Example 172, N-[1-(3-Cyano-4-methyl-1H-indol-7-yl)piperidin-4-yl]-5-[4-({4-[2-(2,6-dioxopiperidin-3-yl)-1-oxo-2,3-dihydro-1H-isoindol-5-yl]piperazin-1-yl}methyl)piperidin-1-yl]pyridine-2-carboxamide] | 1 | 94 | 4 | 94 |
| N#Cc1c[nH]c2c(N3CCC(NC(=O)c4ccc(N5CCC(CN6CCC(n7ccc8c(N9CCC(=O)NC9=O)cccc87)CC6)CC5)cc4)CC3)ccc(Cl)c12 [Example 173, N-[1-(4-Chloro-3-cyano-1H-indol-7-yl)piperidin-4-yl]-4-[4-({4-[4-(2,4-dioxo-1,3-diazinan-1-yl)-1H-indol-1-yl]piperidin-1-yl}methyl)piperidin-1-yl]benzamide] | 1 | 102 | 2 | 109 |
| N#Cc1c[nH]c2c(C3CCC(NC(=O)c4ccc(N5CCC(CN6CCC(n7ccc8c(N9CCC(=O)NC9=O)cccc87)CC6)CC5)cc4F)CC3)ccc(Cl)c12 (stereo not drawn) [Example 174, N-[4-(4-Chloro-3-cyano-1H-indol-7-yl)cyclohexyl]-4-[4-({4-[4-(2,4-dioxo-1,3-diazinan-1-yl)-1H-indol-1-yl]piperidin-1-yl}methyl)piperidin-1-yl]-2-fluorobenzamide] | 3 | 106 | 13 | 104 |
| N#Cc1c[nH]c2c(N3CCC(NC(=O)c4c(F)cc(N5CCC(CN6CCC(n7ccc8c(N9CCC(=O)NC9=O)cccc87)CC6)CC5)cc4F)CC3)ccc(Cl)c12 [Example 175, N-[1-(4-Chloro-3-cyano-1H-indol-7-yl)piperidin-4-yl]-4-[4-({4-[4-(2,4-dioxo-1,3-diazinan-1-yl)-1H-indol-1-yl]piperidin-1-yl}methyl)piperidin-1-yl]-2,6-difluorobenzamide] | 1 | 107 | 1 | 109 |
| N#Cc1c[nH]c2c(N3CCC(NC(=O)c4cnc(N5CCC(CN6CCC(n7ccc8c(N9CCC(=O)NC9=O)cccc87)CC6)CC5)cn4)CC3)ccc(Cl)c12 [Example 176, N-[1-(4-Chloro-3-cyano-1H-indol-7-yl)piperidin-4-yl]-5-[4-({4-[4-(2,4-dioxo-1,3-diazinan-1-yl)-1H-indol-1-yl]piperidin-1-yl}methyl)piperidin-1-yl]pyrazine-2-carb oxamide] | 1 | 104 | 3 | 102 |
| Cc1cc(N2CCC(CN3CCC(n4ccc5c(N6CCC(=O)NC6=O)cccc54)CC3)CC2)ccc1C(=O)NC1CCN(c2ccc(Cl)c3c(C#N)c[nH]c23)CC1 [Example 178, N-[1-(4-Chloro-3-cyano-1H-indol-7-yl)piperidin-4-yl]-4-[4-({4-[4-(2,4-dioxo-1,3-diazinan-1-yl)-1H-indol-1-yl]piperidin-1-yl}methyl)piperidin-1-yl]-2-methylbenzamide] | 2 | 106 | 2 | 107 |
| N#Cc1c[nH]c2c(N3CCC(NC(=O)c4ccc(N5CCC(CN6CCC(n7ccc8c(N9CCC(=O)NC9=O)cccc87)CC6)CC5)nn4)CC3)ccc(Cl)c12 [Example 179, N-[1-(4-Chloro-3-cyano-1H-indol-7-yl)piperidin-4-yl]-6-[4-({4-[4-(2,4-dioxo-1,3-diazinan-1-yl)-1H-indol-1-yl]piperidin-1-yl}methyl)piperidin-1-yl]pyridazine-3-carboxamide] | 1 | 103 | 1 | 108 |

Further compounds by falling DC50 [1], results first:

| DC50 [1] [nM] | Dmax [1] [%] | DC50 [2] [nM] | Dmax [2] [%] | Structure (SMILES) |
| --- | --- | --- | --- | --- |
| 5 | 86 | 23 | 94 | N#Cc1c[nH]c2c(N3CCC(NC(=O)c4ccc(N5CCC(CN6CCN(c7cc8c(cc7F)C(=O)N(C7CCC(=O)NC7=O)C8=O)CC6)CC5)cn4)CC3)ccc(Cl)c12 (stereo not drawn) [Example 169, N-[1-(4-Chloro-3-cyano-1H-indol-7-yl)piperidin-4-yl]-5-[4-({4-[2-(2,6-dioxopiperidin-3-yl)-6-fluoro-1,3-dioxo-2,3-dihydro-1H-isoindol-5-yl]piperazin-1-yl}methyl)piperidin-1-yl]pyridine-2-carboxamide] |
| 5 | 96 | 36 | 85 | Cc1ccc(N2CCC(NC(=O)c3ccc(N4CCC(CN5CCN(c6cc7c(cc6F)C(=O)N(C6CCC(=O)NC6=O)C7=O)CC5)CC4)cn3)CC2)c2[nH]cc(C#N)c12 (stereo not drawn) [Example 171, N-[1-(3-Cyano-4-methyl-1H-indol-7-yl)piperidin-4-yl]-5-[4-({4-[2-(2,6-dioxopiperidin-3-yl)-6-fluoro-1,3-dioxo-2,3-dihydro-1H-isoindol-5-yl]piperazin-1-yl}methyl)piperidin-1-yl]pyridine-2-carboxamide] |
| 2 | 106 | 2 | 115 | N#Cc1cc(C(=O)NC2CCN(c3ccc(Cl)c4c(C#N)c[nH]c34)CC2)ccc1N1CCC(CN2CCC(n3ccc4c(N5CCC(=O)NC5=O)cccc43)CC2)CC1 [Example 165, N-[1-(4-Chloro-3-cyano-1H-indol-7-yl)piperidin-4-yl]-3-cyano-4-[4-({4-[4-(2,4-dioxo-1,3-diazinan-1-yl)-1H-indol-1-yl]piperidin-1-yl}methyl)piperidin-1-yl]benzamide] |
| 2 | 107 | 15 | 40 | N#Cc1c[nH]c2c(N3CCC(NC(=O)c4ncc(N5CCC(CN6CCC(n7ccc8c(N9CCC(=O)NC9=O)cccc87)CC6)CC5)cn4)CC3)ccc(Cl)c12 [Example 177, N-[1-(4-Chloro-3-cyano-1H-indol-7-yl)piperidin-4-yl]-5-[4-({4-[4-(2,4-dioxo-1,3-diazinan-1-yl)-1H-indol-1-yl]piperidin-1-yl}methyl)piperidin-1-yl]pyrimidine-2-carboxamide] |
| 1 | 87 | 2 | 96 | N#Cc1c[nH]c2c(N3CCC(NC(=O)c4ccc(N5CCC(CN6CCN(c7ccc8c(c7)CN(C7CCC(=O)NC7=O)C8=O)CC6)CC5)cn4)CC3)ccc(Cl)c12 (stereo not drawn) [Example 168, N-[1-(4-Chloro-3-cyano-1H-indol-7-yl)piperidin-4-yl]-5-[4-({4-[2-(2,6-dioxopiperidin-3-yl)-1-oxo-2,3-dihydro-1H-isoindol-5-yl]piperazin-1-yl}methyl)piperidin-1-yl]pyridine-2-carboxamide] |
| 1 | 100 | 2 | 101 | N#Cc1n[nH]c2c(N3CCC(NC(=O)c4ccc(N5CCC(CN6CCC(n7ccc8c(N9CCC(=O)NC9=O)cccc87)CC6)CC5)cn4)CC3)ccc(Cl)c12 [Example 170, N-[1-(4-Chloro-3-cyano-1H-indazol-7-yl)piperidin-4-yl]-5-[4-({4-[4-(2,4-dioxo-1,3-diazinan-1-yl)-1H-indol-1-yl]piperidin-1-yl}methyl)piperidin-1-yl]pyridine-2-carboxamide] |
